Laboratory results as given in PMC7385619, “A triple action CDK4/6-PI3K-BET inhibitor with augmented cancer cell cytotoxicity” (Cell Discovery, 2020).

How the values were obtained:
Type in all cases: cell-based
[1] = test system: Hepatocellular carcinoma cells (Hep3B, HepG2, and Huh7); assay: Cell viability (cytotoxicity) assay, hepatocellular carcinoma cells; settings: Homo sapiens; 48 hours, CCK8 or Alamar Blue; curves of Fig. 1f-j; read-out: Half maximal inhibitory concentration (IC50) in cell line cytotoxicity assays, Hepatocellular Carcinoma
[2] = test system: mantle cell lymphoma (Granta-519, Mino, and Jeko-1); assay: Cell viability (cytotoxicity) assay, mantle cell lymphoma cells; settings: Homo sapiens; 48 hours, CCK8 or Alamar Blue; curves of Fig. 1f-j; read-out: Half maximal inhibitory concentration (IC50) in cell line cytotoxicity assays, Mantle Cell Lymphoma
[3] = test system: neuroblastoma cells (CHLA-255, CHLA-136, and SMS-KNCR); assay: Cell viability (cytotoxicity) assay, neuroblastoma cells; settings: Homo sapiens, 48 hours, CCK8 or Alamar Blue, curves of Fig. 1f-j, read-out: Half maximal inhibitory concentration (IC50) in cell line cytotoxicity assays, Neuroblastoma

CC(=O)c1c(C)c2cnc(Nc3ccc(N4CCNCC4)cn3)nc2n(C2CCCC2)c1=O [Palbociclib, reference compound]
IC50 [1]: 11.9 µM | IC50 [2]: 8.4 µM | IC50 [3]: 9.2 µM
